Results: patent US10935544B2, “Glycan arrays and method of use” (OBI Pharma, Inc., priority 2015, dated 2021)

Columns and labels:
VK9 = assay: ELISA binding of VK9 to plate-coated Globo H-ceramide and Globo H-lipids; conditions: glycan immobilized on microtiter plate from 0.001 to 10 μg/mL; FIG. 8A
Protocol: Enzyme-linked immunosorbent assay. Clear Flat-Bottom Immuno Nonsterile 96-Well Plates (Thermo Fisher Scientific Inc., Cat#442404)) were coated with the respective glycan-linked glycopeptides at 0.2 μg to 50 μL ethanol per well and were incubated at room temperature overnight. Then 100 μL Casein Blocking Buffer (Sigma-Aldrich Co. LLC, Cat#B6429) was added to each well and the microtiter plate was incubated at room temperature for 30 minutes. All subsequent steps were performed at room temperature.
The microtiter plate was treated with 50 μL of different dilutions of VK9 cells in Casein Blocking Buffer to each well and incubated at room temperature for 1 hr. The wells were then washed three times with Phosphate-buffered saline (Thermo Fisher Scientific Inc., Cat#70011) plus 0.05% (vol/vol) Tween 20 (J. T. Baker, Cat#JTB-X251-07) using a microplate washer (SkanWash 400, Molecular Devices LLC.). […]
The microtiter plate was treated with 100 μL of Alkaline Phosphatase (pNPP) Yellow Liquid Substrate System for ELISA (Sigma-Aldrich Co. LLC., Cat#P7998) at 37° C. for 20 minutes and the reaction was stopped by adding another 50 μL of Stop Solution (3N NaOH). The bound VK9 cells were visualized monitored at 405 nm using a microplate reader (SpectraMax M2, Molecular Devices LLC.). […]

Human IgM [1] = assay: Glycan array analysis (primary test), glycan score of Human IgM; type: binding
Text: (§1) This testing platform utilized Agnitio BioIC system which performed an automatically ELISA reaction within a microfluidic cartridge. Each cartridge contained an array of microfluidic pumps and valves, a channel network, reagent storage reservoirs, a glycan array reaction zone, and a waste storage reservoir. To perform the test, all reagent and test sample were pumped sequentially, from their respected reservoirs in to a reaction zone containing the glycan microarray in order to carry out a multiplexed ELISA reaction with chemical luminescence. The result data was captured simultaneously and data analysis was performed by the LabIT software provided by Agnitio Science and Technology Inc. The specification of equipment list of Agnitio BioIC system is listed in Table 2.
The Microfluidic cartridge was manufactured at Agnitio Science and Technology Inc. The microfluidic cartridge was composed by three layers shown in FIG. 9. The upper layer contained serum and reagents reservoirs, microfluidic pumps, and ELISA channel network. The rubber middle layer contained a coated nitrocellulose membrane. The glycan antigens (Globo H-ceramide and Globo H-lipid 1) were immobilized onto the nitrocellulose membrane via hydrophobic interactions. The bottom layer contained a tank as for the waste reservoir. There were one hundred and twenty spots for original array layout design. In order to ensure the spot-to-spot coefficient of variation (CV) was lower than 15%, we only used central sixty-four spots for following clinical sample test.
Reagent preparation: Sixty-six microliter Normal Human Serum (NETS) or pancreatic cancer patient's serum was added in 594 μL Sample Diluent Buffer (BioCheck Inc., Cat#MB 10175) to form ten-fold dilution. The Secondary Antibody Solution was performed by first adding 2 μL Horseradish peroxidase (HRP)-conjugated goat anti-human IgG (KPL Inc., Cat#474-1002)/IgM (KPL Inc., Cat#474-1003) in 98 μL Conjugate Buffer (SuperBlock (TBS) Blocking Buffer plus 0.2% Tween 20, Thermo Fisher Scientific Inc., Cat#37535) to form fifty-fold dilution. Next, 40 μL diluted solution was pumped into 2360 μL Conjugate Buffer to form the Secondary Antibody Solution (3000× diluted).
Assay procedure: Six hundred and twenty microliter Wash Buffer (Phosphate-buffered saline (Thermo Fisher Scientific Inc., Cat#70011) plus 0.2% (vol/vol) Tween 20 (J. T. Baker, Cat#JTB-X251-07)) was added in the “Wash” hole of array. […]
(§2) The glycan array was put on the Agnitio BioIC Pumping Machine for pressurizing 30 minutes. The bound serum was visualized monitored using Agnitio BioIC Analyzer. The absorbance intensity of array was converted into “Glycan Scores” based on the following calculation: In certain examples, glycan scores=(raw data−background)/Internal Control×10. […]

IgM = assay: Sugar array IgM binding with pancreatic cancer and healthy clinical samples; design: species or system human
Protocol: The Globo H lipid 1, Globo H lipid 2, and Globo H-ceramide were immobilized on microtiter plate from 0.001 to 10 μg/mL, separately. […] In addition, the comparison of IgM binding patterns of Globo H-ceramide, Globo H-lipid 1, and Globo H-lipid 2 using sugar array was listed in FIG. 8B. […] In some embodiments the complex binding agent may comprise any of the complex binding agents or detectable labels of this disclosure. In certain exemplary embodiments, the Globo H ceramide and Globo H lipids are the array elements and the IgM antibodies are from the sample. And then secondary labeled anti-human ab are used to detect the complexes

Human IgM [2] = assay: Glycan array analysis (secondary test), relative anti-glycan Human IgM, pancreatic cancer; type: binding
Protocol: The reagents, equipment and assay procedures were totally the same as primary test. However, the intensity of array was converted into “Ab level (μg/mL)” based on following calculation which is relative to Anti-human Globo H IgG.
The internal curve of each chip was using linear regression to calculate slope and intercept. In certain examples, the Ab level (μg/mL)=[(raw data-intercept)/slope]×0.1. The internal curve was performed using 0.0625, 0.125, 0.25, 0.5, 0.75, and 1 μg/mL of human IgM.
Relative Anti-glycan Human IgM: There were total 277 clinical samples (108 pancreatic cancer and 169 healthy serum) performed using Globo H-lipid 1 and SSEA-4-lipid 1 immobilized arrays. The median values of Globo H-lipid 1 IgM test were 0.32 (pancreatic cancer) and 0.25 (healthy) [FIG. 11A]. The median values of SSEA-4-lipid 1 IgM test were 0.12 (pancreatic cancer) and 0.08 (healthy) [FIG. 11B].

Human IgG = assay: Glycan array analysis (primary test), glycan score of Human IgG; type: binding
Text: as §1
The Microfluidic cartridge was manufactured at Agnitio Science and Technology Inc. The microfluidic cartridge was composed by three layers shown in FIG. 9. The upper layer contained serum and reagents reservoirs, microfluidic pumps, and ELISA channel network. […]
as §2

Compound	optical density at 405 nm (OD405) (VK9)	median glycan score, IgM test (Human IgM [1]; healthy serum)	median glycan score, IgM test (Human IgM [1]; pancreatic cancer serum)	Mean (IgM) Healthy (n = 100) (IgM; healthy samples)	Mean (IgM) Pancreatic cancer (n = 115) (IgM; pancreatic cancer samples)	median Ab level, IgM test (Human IgM [2]; healthy serum) [µg/mL]	median Ab level, IgM test (Human IgM [2]; pancreatic cancer serum) [µg/mL]	median glycan score, IgG test (Human IgG; healthy serum)	median glycan score, IgG test (Human IgG; pancreatic cancer serum)
CCCCCCCCCCCCCCCCOC[C@@H](COC(=O)CCCC(=O)NCCCCCO[C@H]1OC(CO)[C@@H](O[C@@H]2OC(CO)[C@H](O[C@H]3OC(CO)[C@H](O)C(O[C@@H]4OC(CO)[C@H](O)C(O[C@@H]5OC(CO)[C@H](O)C(O)C5O[C@@H]5OC(C)[C@@H](O)C(O)C5O)C4NC(C)=O)C3O)C(O)C2O)C(O)C1O)OCCCCCCCCCCCCCCCC (stereo partly shown) [Globo H-lipid 2]	higher than Globo H-ceramide								
Globo H-ceramide [reference compound]		1.57	2.53	1977.88	3130.03				
CCCCCCCCCCCCCCCCOCC(OCCCCCCCCCCCCCCCC)C(=O)NCCCCCO[C@H]1OC(CO)[C@@H](O[C@@H]2OC(CO)[C@H](O[C@H]3OC(CO)[C@H](O)C(O[C@@H]4OC(CO)[C@H](O)C(O[C@@H]5OC(CO)[C@H](O)C(O)C5O[C@@H]5OC(C)[C@@H](O)C(O)C5O)C4NC(C)=O)C3O)C(O)C2O)C(O)C1O (stereo partly shown) [Globo H-lipid 1]		2.56	6.64			0.25	0.32	0.12	0.54
CCCCCCCCCCCCCCCCOC[C@@H](OCCCCCCCCCCCCCCCC)C(=O)NCCCCCO[C@@H]1O[C@H](CO)[C@@H](O[C@@H]2O[C@H](CO)[C@H](O[C@H]3O[C@H](CO)[C@H](O)[C@H](O[C@@H]4O[C@H](CO)[C@H](O)[C@H](O[C@@H]5O[C@H](CO)[C@H](O)[C@H](O[C@]6(C(=O)O)C[C@H](O)[C@@H](NC(C)=O)[C@H]([C@H](O)[C@H](O)CO)O6)[C@H]5O)[C@H]4NC(C)=O)[C@H]3O)[C@H](O)[C@H]2O)[C@H](O)[C@H]1O [SSEA-4-lipid 1]						0.08	0.12		
